Patent publication US20170280720A1, “ARGININE […] INHIBITORS AND USES THEREOF” (EPIZYME, INC., priority 2014, published 2017)

Biological target: T1, human PRMT1 (Homo sapiens, UniProt Q99873)
T1 construct: GST-tagged PRMT1; made in house; host or cells: High Five insect cells (baculovirus, pFastBacI)
Test: PRMT1 biochemical assay (3H-SAM Flashplate, peptide substrate)
Settings: read-out: PRMT1_ IC50
Method in brief: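 FLAG-tagged full-length human PRMT1 (0.5 nM, GST-tagged, insect-cell expressed) preincubated 30 min at RT with compound, then biotinylated histone H4 36-50 peptide (20 nM) plus 200 nM 3H-SAM and 1.5 uM SAM in Bicine pH 7.6, 2% DMSO. 3H-methylated peptide captured on streptavidin Flashplate; IC50 from 3/4-parameter fit.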

T1 sequence (Q99873 with tags, fused parts or gaps): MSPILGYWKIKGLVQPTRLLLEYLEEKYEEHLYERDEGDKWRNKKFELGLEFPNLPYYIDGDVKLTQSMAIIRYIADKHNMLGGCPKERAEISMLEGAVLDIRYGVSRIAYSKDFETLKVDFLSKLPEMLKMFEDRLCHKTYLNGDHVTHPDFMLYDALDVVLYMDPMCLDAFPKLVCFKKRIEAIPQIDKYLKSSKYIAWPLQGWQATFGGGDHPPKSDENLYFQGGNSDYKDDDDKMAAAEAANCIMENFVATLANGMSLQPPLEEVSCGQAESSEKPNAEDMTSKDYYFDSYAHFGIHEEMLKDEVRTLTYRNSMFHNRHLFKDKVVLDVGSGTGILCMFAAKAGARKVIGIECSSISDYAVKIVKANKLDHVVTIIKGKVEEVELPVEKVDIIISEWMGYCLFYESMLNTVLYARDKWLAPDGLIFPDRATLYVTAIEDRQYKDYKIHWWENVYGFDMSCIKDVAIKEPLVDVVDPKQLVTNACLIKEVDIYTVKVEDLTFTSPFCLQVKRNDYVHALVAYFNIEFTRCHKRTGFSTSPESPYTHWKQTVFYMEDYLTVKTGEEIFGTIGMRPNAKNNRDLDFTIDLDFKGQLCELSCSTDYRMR

Row | SMILES | IC50 [nM]
1 | N#Cc1cccc(Cn2cnc3ccc(-c4ccc(CNCCN)cc4)cc32)c1 [Compound 145] | 1270
2 | CC(C)n1ncc2c(C(=O)NCc3ccncc3)cc(-c3cccc(CNCCN)c3)nc21 [Compound 150] | 1600
3 | CC(C)n1ncc2c(C(=O)N3CCCCC3)cc(-c3cccc(CNCCN)c3)nc21 [Compound 153] | 1710
4 | CC(C)n1ncc2c(C(=O)NCc3ccccc3)cc(-c3cccc(CNCCN)c3)nc21 [Compound 155] | 2300
5 | NCCNCc1ccc(-c2cnc3c(c2)CCC(=O)N3)cc1 [Compound 156] | 2410
6 | NCCNCc1ccc(-c2ccc3ncn(C4CCNCC4)c3c2)cc1 [Compound 157] | 2430
7 | CC(C)n1ncc2c(C(=O)NCc3ccccc3F)cc(-c3cccc(CNCCN)c3)nc21 [Compound 159] | 3140
8 | CC(C)n1ncc2c(C(=O)N[C@@H](C)c3ccccc3)cc(-c3cccc(CNCCN)c3)nc21 [Compound 160] | 4100
9 | CC(C)n1cnc2ccc(-c3ccc(CNCCN)cc3)cc21 [Compound 166] | 5090
10 | CC(C)n1ncc2c(C(=O)NCc3c(F)cccc3F)cc(-c3cccc(CNCCN)c3)nc21 [Compound 168] | 7810
11 | CNCCN(C)Cc1cccc(-c2cnc3c(c2)OCC(=O)N3)c1 [Compound 355] | 512
12 | COc1cccc(CNC(=O)c2cncc(-c3ccc(CNCCN)cc3)c2)c1 [Compound 356] | 755
13 | NCCNCc1ccc(-c2cnc3c(c2)OCC(=O)N3)cc1 [Compound 358] | 78.5

Now from value to molecule:

Row | IC50 [nM] | SMILES
14 | 1480 | CC(C)n1ncc2c(C(=O)NC3CCOCC3)cc(-c3cccc(CN(C)CCN)c3)nc21 [Compound 148]
15 | 1660 | CNCCN(C)Cc1cccc(-c2cc(N)c3cnn(C(C)C)c3n2)c1 [Compound 151]
16 | 2290 | CNCCN(C)Cc1cccc(-c2cc(OCC(F)(F)F)c3cnn(C(C)C)c3n2)c1 [Compound 154]
17 | 3020 | CN(CCN)Cc1cccc(-c2cc(C(=O)NC3CCOCC3)c3cnn(C)c3n2)c1 [Compound 158]
18 | 4170 | CCS(=O)(=O)Nc1cc(-c2cccc(CN(C)CCNC)c2)nc2c1cnn2C(C)C [Compound 161]
19 | 4320 | CC(C)n1ncc2c(C(=O)NCC3CCN(C)CC3)cc(-c3cccc(CN(C)CCN(C)C)c3)nc21 [Compound 162]
20 | 4410 | CC(C)n1ncc2c(N3CCOCC3)cc(-c3cccc(CN(C)CCNC4CC4)c3)nc21 [Compound 163]
21 | 4500 | CNCCN(C)Cc1cccc(-c2cc(NS(=O)(=O)C(F)(F)F)c3cnn(C(C)C)c3n2)c1 [Compound 164]
22 | 5890 | CC(C)n1ncc2c(C(=O)NCC3CCOCC3)cc(-c3cccc(CN(C)CCNC4CC4)c3)nc21 [Compound 167]
23 | 10000 | CNCCN(C)Cc1cccc(-c2cc(NS(C)(=O)=O)c3cnn(C(C)C)c3n2)c1 [Compound 169]
24 | 10000 | CNCCN(C)Cc1cccc(-c2cc(NS(C)(=O)=O)c3cnn(C(C)C)c3n2)c1 [Compound 170]
